Patent US20240132431A1, “METHOD FOR ALKYLATING ACIDIC FUNCTIONAL GROUP” (Chugai Seiyaku Kabushiki Kaisha, priority 2021, published 2024)
Blank lines part the entries; values can stand above or below the compound they belong to.

Target: T1, Bcl-2 protein (Recombinant Human Bcl-2 Protein) (Homo sapiens, UniProt P10415)
T1 construct: purchased Novus NBP2-34889
Test: Binding evaluation of mixture library compounds to Bcl-2 using AS-MS (affinity selection mass spectrometry)
Conditions: for ASMS ratio (%) n = 1 / ASMS ratio (%) n = 2: ASMS Ratio(%)=(A−C)/B×100; for ASMS ratio (%) n = 1: replicate n = 1; for ASMS ratio (%) n = 2: replicate n = 2
Summary of the method: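 Readout is ASMS Ratio (%), (A−C)/B×100, from reversed-phase LC/MS of SEC-passed extracts, with protein-free unfiltered standard (B) and protein-free SEC blank (C). Recombinant human Bcl-2 at 20 μM final met ~1200 pooled compounds at […] each for 1 h, 23° C., dark, in Tris-HCl pH 7.4 buffer.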

[1] = AS-MS, mixture of 1200 compounds, Bcl-2
[2] = AS-MS on the mixture of 1200 library compounds

T1 sequence (P10415 whole entry): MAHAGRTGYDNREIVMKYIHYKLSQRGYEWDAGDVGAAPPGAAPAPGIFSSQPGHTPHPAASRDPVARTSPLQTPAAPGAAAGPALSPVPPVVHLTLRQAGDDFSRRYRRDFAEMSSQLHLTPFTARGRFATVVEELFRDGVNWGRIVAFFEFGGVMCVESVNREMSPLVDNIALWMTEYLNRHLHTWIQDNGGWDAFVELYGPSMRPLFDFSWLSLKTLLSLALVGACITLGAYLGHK

Compound: CCOc1cccc(C#Cc2ccccc2CN2CCN(c3ccc(C(=O)NCC(F)(F)F)cc3)CC2)c1 [B1K069-01, 4-[4-[[2-[2-(3-Ethoxyphenyl)ethynyl]phenyl]methyl]piperazin-1-yl]-N-(2,2,2-trifluoroethyl)benzamide]
- ASMS ratio (%) n = 1 [1]: 3.5%
- ASMS ratio (%) n = 2 [1]: −1.4%

Compound: 6-[4-[[2-[2-(3-Ethoxyphenyl)ethynyl]phenyl]methyl]piperazin-1-yl]-N-propylpyridazine-3-carboxamide [B1M053-01]
- ASMS ratio (%) n = 1 [1]: −3.0%
- ASMS ratio (%) n = 2 [1]: −3.1%

Compound: CCOc1cccc(C#Cc2cncc(C(=O)N3CCN(c4ccc(C(=O)Nc5ccc(OC)cc5)cc4)CC3)c2)c1 [B1O031-01, 4-[4-[5-[2-(3-Ethoxyphenyl)ethynyl]pyridine-3-carbonyl]piperazin-1-yl]-N-(4-methoxyphenyl)benzamide]
- ASMS ratio (%) n = 1 [2]: −1.3%
- ASMS ratio (%) n = 2 [2]: −4.1%

Compound: CCOc1cncc(-c2ccccc2CCC(=O)N2CCN(c3ccc(C(=O)NS(=O)(=O)CC45CC6CC(CC(C6)C4)C5)nn3)CC2)c1 [B2A012-01, N-(1-Adamantylmethylsulfonyl)-6-[4-[3-[2-(5-ethoxypyridin-3-yl)phenyl]propanoyl]piperazin-1-yl]pyridazine-3-carboxamide]
- ASMS ratio (%) n = 1 (AS-MS, mixture library, Bcl-2): 1.5%
- ASMS ratio (%) n = 2 (AS-MS, mixture library, Bcl-2): 1.9%

Compound: CCOc1cncc(-c2csc(CN3CCN(c4ccc(C(=O)N(CC)CC)cc4)CC3)c2)c1 [B4J068-01, 4-[4-[[4-(5-Ethoxypyridin-3-yl)thiophen-2-yl]methyl]piperazin-1-yl]-N,N-diethylbenzamide]
- ASMS ratio (%) n = 1 (AS-MS, mixture library, Bcl-2): 0.7%
- ASMS ratio (%) n = 2 (AS-MS, mixture library, Bcl-2): 0.0%

Compound: CCOc1cccc(-c2ccc(CN3CCN(c4ccc(C(=O)NCC56CC7CC(CC(C7)C5)C6)cc4)CC3)c(CC)c2)c1 [B1A049-01, N-(1-Adamantylmethyl)-4-[4-[[4-(3-ethoxyphenyl)-2-ethylphenyl]methyl]piperazin-1-yl]benzamide]
- ASMS ratio (%) n = 1 [1]: 4.1%
- ASMS ratio (%) n = 2 [1]: −9.1%

Compound: CCOc1cccc(C#Cc2cncc(C(=O)N3CCN(c4ccc(C(=O)N(CC)CC)cc4)CC3)c2)c1 [B4J031-01, 4-[4-[5-[2-(3-Ethoxyphenyl)ethynyl]pyridine-3-carbonyl]piperazin-1-yl]-N,N-diethylbenzamide]
- ASMS ratio (%) n = 1 [2]: 0.1%
- ASMS ratio (%) n = 2 [2]: 0.8%

Compound: CCOc1cccc(-c2cc(C(=O)N3CCN(c4ccc(C(=O)Nc5ccc(OC)cc5)nn4)CC3)cc(C(C)(C)C)c2)c1 [B1O015-01, 6-[4-[3-tert-Butyl-5-(3-ethoxyphenyl)benzoyl]piperazin-1-yl]-N-(4-methoxyphenyl)pyridazine-3-carboxamide]
- ASMS ratio (%) n = 1 [2]: 6.0%
- ASMS ratio (%) n = 2 [2]: −2.7%

Compound: CCOc1cccc(-c2cc(CN3CCN(c4ccc(C(=O)N(CC)CC)cc4)CC3)cc(OC(F)(F)F)c2)c1 [B4J063-01, 4-[4-[[3-(3-Ethoxyphenyl)-5-(trifluoromethoxy)phenyl]methyl]piperazin-1-yl]-N,N-diethylbenzamide]
- ASMS ratio (%) n = 1 (AS-MS, mixture library, Bcl-2): 4.5%
- ASMS ratio (%) n = 2 (AS-MS, mixture library, Bcl-2): 0.1%

Compound: CCOc1cccc(-c2ccc(C(=O)N3CCN(c4ccc(C(=O)NS(=O)(=O)CC56CC7CC(CC(C7)C5)C6)cc4)CC3)cc2F)c1 [B2A027-01, N-(1-Adamantylmethylsulfonyl)-4-[4-[4-(3-ethoxyphenyl)-3-fluorobenzoyl]piperazin-1-yl]benzamide]
- ASMS ratio (%) n = 1 (AS-MS, mixture library, Bcl-2): 5.5%
- ASMS ratio (%) n = 2 (AS-MS, mixture library, Bcl-2): −3.9%

Compound: CCOc1cncc(-c2ccc(CN3CCN(c4ccc(C(=O)NCC56CC7CC(CC(C7)C5)C6)nn4)CC3)c(OC)c2)c1 [B1A080-01, N-(1-Adamantylmethyl)-6-[4-[[4-(5-ethoxypyridin-3-yl)-2-methoxyphenyl]methyl]piperazin-1-yl]pyridazine-3-carboxamide]
- ASMS ratio (%) n = 1 [1]: 3.4%
- ASMS ratio (%) n = 2 [1]: 0.0%

Compound: CCCNC(=O)c1ccc(N2CCN(Cc3ccccc3-c3cncc(OCC)c3)CC2)nn1 [B1M043-01]
- ASMS ratio (%) n = 1 [1]: 2.2%
- ASMS ratio (%) n = 2 [1]: −3.1%

Compound: CCOc1cncc(-c2ccccc2CCC(=O)N2CCN(c3ccc(C(=O)Nc4ccc(OC)cc4)nn3)CC2)c1 [B1O012-01, 6-[4-[3-[2-(5-Ethoxypyridin-3-yl)phenyl]propanoyl]piperazin-1-yl]-N-(4-methoxyphenyl)pyridazine-3-carboxamide]
- ASMS ratio (%) n = 1 [2]: 0.8%
- ASMS ratio (%) n = 2 [2]: −0.9%

Compound: CCOc1cncc(-c2cc(OC)c(CN3CCN(c4ccc(C(=O)NCC56CC7CC(CC(C7)C5)C6)nn4)CC3)c(OC)c2)c1 [B1A086-01, N-(1-Adamantylmethyl)-6-[4-[[4-(5-ethoxypyridin-3-yl)-2,6-dimethoxyphenyl]methyl]piperazin-1-yl]pyridazine-3-carboxamide]
- ASMS ratio (%) n = 1 [1]: 0.0%
- ASMS ratio (%) n = 2 [1]: −14.8%

Compound: 6-[4-[[3-(3-Ethoxyphenyl)-5-propan-2-yloxyphenyl]methyl]piperazin-1-yl]-N-propylpyridazine-3-carboxamide [B1M016-01]
- ASMS ratio (%) n = 1 [1]: 0.0%
- ASMS ratio (%) n = 2 [1]: 0.0%

Compound: CCOc1cccc(-c2csc(CN3CCN(c4ccc(C(=O)NCC(F)(F)F)cc4)CC3)c2)c1 [B1K067-01, 4-[4-[[4-(3-Ethoxyphenyl)thiophen-2-yl]methyl]piperazin-1-yl]-N-(2,2,2-trifluoroethyl)benzamide]
- ASMS ratio (%) n = 1 [1]: 5.1%
- ASMS ratio (%) n = 2 [1]: 1.8%

Next, values leading:

- ASMS ratio (%) (n = 1): 0.0%
- ASMS ratio (%) (n = 2): 0.0%
Compound: CCOc1cncc(-c2cc(C(=O)N3CCN(c4ccc(C(=O)NS(=O)(=O)CCC(F)(F)F)nn4)CC3)cc(C(C)(C)C)c2)c1 [B2N016-01, 6-[4-[3-tert-Butyl-5-(5-ethoxypyridin-3-yl)benzoyl]piperazin-1-yl]-N-(3,3,3-trifluoropropylsulfonyl)pyridazine-3-carboxamide]

- ASMS ratio (%) n = 2 (AS-MS, mixture library, Bcl-2): 0.0%
Compound: CCOc1cncc(-c2cc(C(=O)N3CCN(c4ccc(C(=O)NS(=O)(=O)c5ccc(NCCSc6ccccc6)c([N+](=O)[O-])c5)nn4)CC3)cc(C(F)(F)F)c2)c1 [B2Q018-01, 6-[4-[3-(5-Ethoxypyridin-3-yl)-5-(trifluoromethyl)benzoyl]piperazin-1-yl]-N-[3-nitro-4-(2-phenylsulfanylethylamino)phenyl]sulfonylpyridazine-3-carboxamide]

- ASMS ratio (%) (n = 1): 0.0%
- ASMS ratio (%) (n = 2): 0.0%
Compound: CCOc1cccc(-c2csc(C(=O)N3CCN(c4ccc(C(=O)NS(=O)(=O)C(C)(C)C)cc4)CC3)c2)c1 [B2L023-01, N-tert-Butylsulfonyl-4-[4-[4-(3-ethoxyphenyl)thiophene-2-carbonyl]piperazin-1-yl]benzamide]

- ASMS ratio (%) n = 1 (AS-MS, mixture library, Bcl-2): 3.7%
- ASMS ratio (%) n = 2 (AS-MS, mixture library, Bcl-2): 3.7%
Compound: CCOc1cncc(-c2cc(CN3CCN(c4ccc(C(=O)NS(=O)(=O)c5ccc(NCCSc6ccccc6)c([N+](=O)[O-])c5)cc4)CC3)cc(OC(C)C)c2)c1 [B2Q058-01, 4-[4-[[3-(5-Ethoxypyridin-3-yl)-5-propan-2-yloxyphenyl]methyl]piperazin-1-yl]-N-[3-nitro-4-(2-phenylsulfanylethylamino)phenyl]sulfonylbenzamide]

- ASMS ratio (%) (n = 1): 0.0%
- ASMS ratio (%) (n = 2): 0.0%
Compound: CCOc1cccc(-c2csc(CN3CCN(c4ccc(C(=O)NS(C)(=O)=O)cc4)CC3)c2)c1 [B2I067-01, 4-[4-[[4-(3-Ethoxyphenyl)thiophen-2-yl]methyl]piperazin-1-yl]-N-methylsulfonylbenzamide]

- ASMS ratio (%) n = 1 (AS-MS, mixture library, Bcl-2): 16.5%
- ASMS ratio (%) n = 2 (AS-MS, mixture library, Bcl-2): 0.5%
Compound: CCOc1cncc(C#Cc2ccccc2C(=O)N2CCN(c3ccc(C(=O)NS(=O)(=O)c4ccc(NCCSc5ccccc5)c([N+](=O)[O-])c4)nn3)CC2)c1 [B2Q008-01, 6-[4-[2-[2-(5-Ethoxypyridin-3-yl)ethynyl]benzoyl]piperazin-1-yl]-N-[3-nitro-4-(2-phenylsulfanylethylamino)phenyl]sulfonylpyridazine-3-carboxamide]

- ASMS ratio (%) (n = 1): 0.0%
- ASMS ratio (%) (n = 2): −1.5%
Compound: CCOc1cncc(-c2ccc(CN3CCN(c4ccc(C(=O)NS(C)(=O)=O)cc4)CC3)c(CC)c2)c1 [B2I050-01, 4-[4-[[4-(5-Ethoxypyridin-3-yl)-2-ethylphenyl]methyl]piperazin-1-yl]-N-methylsulfonylbenzamide]

- ASMS ratio (%) (n = 1): 0.0%
- ASMS ratio (%) (n = 2): 0.0%
Compound: CCOc1cncc(C#Cc2ccccc2CN2CCN(c3ccc(C(=O)NS(=O)(=O)C(C)(C)C)nn3)CC2)c1 [B2L096-01, N-tert-Butylsulfonyl-6-[4-[[2-[2-(5-ethoxypyridin-3-yl)ethynyl]phenyl]methyl]piperazin-1-yl]pyridazine-3-carboxamide]

- ASMS ratio (%) n = 1 (AS-MS, mixture library, Bcl-2): −3.9%
- ASMS ratio (%) n = 2 (AS-MS, mixture library, Bcl-2): 0.2%
Compound: CCOc1cncc(-c2cc(CN3CCN(c4ccc(C(=O)NS(=O)(=O)CC56CC7CC(CC(C7)C5)C6)cc4)CC3)cc(OCC)c2)c1 [B2A056-01, N-(1-Adamantylmethylsulfonyl)-4-[4-[[3-ethoxy-5-(5-ethoxypyridin-3-yl)phenyl]methyl]piperazin-1-yl]benzamide]

- ASMS ratio (%) n = 1 [2]: 0.0%
- ASMS ratio (%) n = 2 [2]: 2.3%
Compound: CCOc1cncc(C#Cc2cncc(C(=O)N3CCN(c4ccc(C(=O)N(CC)CC)nn4)CC3)c2)c1 [B4J010-01, 6-[4-[5-[2-(5-Ethoxypyridin-3-yl)ethynyl]pyridine-3-carbonyl]piperazin-1-yl]-N,N-diethylpyridazine-3-carboxamide]

- ASMS ratio (%) n = 1 [2]: 0.0%
- ASMS ratio (%) n = 2 [2]: 0.0%
Compound: CCOc1cccc(-c2cc(C(=O)N3CCN(c4ccc(C(=O)N(C)CC56CC7CC(CC(C7)C5)C6)cc4)CC3)cc(C(C)(C)C)c2)c1 [B3A037-01, N-(1-Adamantylmethyl)-4-[4-[3-tert-butyl-5-(3-ethoxyphenyl)benzoyl]piperazin-1-yl]-N-methylbenzamide]
